Results from patent publication US20050065041A1, “GELLED ACID” (SCHLUMBERGER TECHNOLOGY CORPORATION, priority 2003, published 2005).
≈ marks a conversion by molar mass, not a printed value. Read-outs that look alike come from different tables or passages of the source.

Assays:
[1] = MSDS and public data as of August, 2003; cited from earlier work
[2] = Iron reduction performance: effect of pH and reagent concentration
[3] = test system: Skeletonema Costatum; experiment: OSPAR/HOCNF aquatic toxicity test, Skeletonema Costatum; assay type: in vivo
Source text: (§1) The bioaccumulation testing was done according to Organization of Economic Co-operation and Development, Paris, (OECD) Method 117. The biodegradation tests were done according to OECD 306. The toxicity tests were done according to the protocol required for application in the North Sea as recommended by OSPAR (the Oslo Paris Commission) for completion of HOCNF (Harmonized Offshore Chemical Notification Format) requirements. The methods are those in effect as of August, 2003, and the MSDS data and public health, safety and environment data given below are as of August, 2003.
(§2) However, in addition to the excellent toxicity results shown in Table 2, in further OSPAR tests, 2-butanoneoxime had NOEC (No Observable Effect Concentration) values of 8.9 mg/L for Acartia tonsa (48 hours), 1000 mg/L for Scophthalamus maximus juvenile (96 hours), and 99.7 mg/L for Skeletonema Costatum (72 hours), and the 15 day BOD was 6.5%.

[4] = Iron reduction as a function of HCl spending; conditions: reagent 2.00%
Procedure: Iron Reduction Performance: All solutions were prepared as indicated using about 0.5% by volume of a concentrate having about 40 weight percent FeCl3, and analyses were done with a HACH 2000 calorimeter, obtained from Hach Company, Loveland, Colo. Standard analyses were as described in the “Water Analyses Handbook,” Hach Company. Total iron was obtained by the FerroZine procedure by form ation of a purple complex observable at 562 nm. The ferrous iron content was determined by the phenanthroline complex procedure determined at 510 nm. An orange complex is formed which is proportional to the iron content. For each analysis, samples of the test solution were taken and diluted 1:100 with water and the appropriate, premeasured reagent pillows were added to the solution. Measurements were determined calorimetrically employing standards for the analyses. For ferrous content, analyses were made quickly to prevent oxidation due to air. Total iron required 5 minutes reaction time. If ferric content was needed, the content was obtained by difference.
The selected iron reducing agent should […] reduce the ferric iron in acid solutions. […] For each of these tests 2.0% of an approximately 10 to 12% aqueous solution or reducing agent or reducing agent precursor was evaluated. This represents approximately twice the concentration to adequately reduce the quantity of Fe^+3 present.

[5] = OSPAR/HOCNF aquatic toxicity test, Acartia tonsa; assay type: in vivo; conditions: Acartia tonsa, in vivo; 48 hr; read-out: Acartia tonsa LC 50 48 hr
Source text: as §1, §2

[6] = test system: Acartia tonsa; experiment: OSPAR/HOCNF aquatic toxicity test, Acartia tonsa; assay type: in vivo
Source text: as §1, §2

[7] = Bioaccumulation (Log Pow), OECD Method 117; assay type: physicochemical; conditions: component in aqueous composition of Table 2
Source text: as §1

[8] = test system: Scophthalamus maximus juvenile; experiment: OSPAR/HOCNF aquatic toxicity test, Scophthalamus maximus juvenile; assay type: in vivo
Source text: as §1, §2

[9] = Diversion test in limestone cores; conditions: 65.5° C., SDA fluid 5% HCl
Procedure: Diversion: Tests were completed with one-inch diameter and 4 inch length cores of Indiana Limestone. The initial permeability of each was determined with 3% NaCl brine in both the production and treatment directions prior to treatment with the gelled acid fluid. Then the gelled fluid was pumped at a constant pressure of about […] in the treatment direction. The time for acid break-through was also recorded. All tests were completed at 65.5° C. and constant pressure. Three cores were used to test for diversion in each case; two cores were about 18 to about 24 md and 1 core was about 45 to about 60 md. The initial and final permeabilities were determined. After the tests, all cores were CT scanned, cross sectional view, to visualize the wormholing.

[10] = HPLC Method OECD 117; cited from earlier work
[11] = OECD 306B, seawater; cited from earlier work
[12] = Acid spending tests with residue analysis at 121° C.; conditions: 6.89 MPa, six hours
Procedure: Acid spending tests were designed and implemented to analyze for residue for spending tests completed at 121° C. These tests were done with amounts chosen such that not all the limestone could be dissolved. […] Reducing agents and reducing agent precursors were evaluated and compared with hydrazinium hydrochloride. Indiana Limestone was crushed and approximately 25 grams of the limestone chips were placed in ajar that would fit a small autoclave. The gelled acid (2.25-ml of gelled acid solution per gram of chips) was added to the limestone chips, stirred to mix well, placed in the autoclave, pressurized to 6.89 mPa, heated to 121° C. and maintained for six hours. At the conclusion of the test, the autoclave was cooled and depressurized. The jar and contents were removed for examination and analysis.
The spent gelled acid was poured through a strainer to observe the fluid and to determine whether the gel was broken. The chips were also rinsed with deionized water to remove gel and residue from the chips, which were examined and then dried and the final weight determined. All residues were rinsed from the jar and chips, combined, and filtered through a pre-weighed Whatman 541 filter paper. The filter paper was dried to a stable weight to obtain the residue weight.

[13] = Biodegradation (BOD), OECD 306; conditions: 28 day
Source text: as §1

[14] = test system: Abra alba; experiment: OSPAR/HOCNF toxicity test, Abra alba; assay type: in vivo; conditions: printed in the column headed Scophthalamus maximus juvenile EC 50 96 hr
Source text: as §1

[15] = Test 1: DI water + 0.50% FeCl3 (pH 2.03), reagent concentration 0.50%
[16] = Test 1: DI water + 0.50% FeCl3 (pH 2.03), reagent concentration 1.00%
[17] = Test 1: DI water + 0.50% FeCl3 (pH 2.03), reagent concentration 1.25%
[18] = Test 2: 15% HCl + 0.50% of a 40% FeCl3 Aqueous Solution, reagent concentration 0.50%
[19] = Test 2: 15% HCl + 0.50% of a 40% FeCl3 Aqueous Solution, reagent concentration 1.00%
[20] = Test 2: 15% HCl + 0.50% of a 40% FeCl3 Aqueous Solution, reagent concentration 1.25%
[21] = Test 2: 15% HCl + 0.50% of a 40% FeCl3 Aqueous Solution, reagent concentration […]
[22] = Test 3: 50% water/CaCl2 + 10% 15% HCl + 0.50% FeCl3, reagent concentration 0.50%
[23] = Test 3: 50% water/CaCl2 + 10% 15% HCl + 0.50% FeCl3, reagent concentration 1.00%
[24] = Test 3: 50% water/CaCl2 + 10% 15% HCl + 0.50% FeCl3, reagent concentration 1.25%
[25] = Test 2: 90% Spent 15% HCl + 0.50% FeCl3
[26] = Test 3: 95% Spent 15% HCl + 0.50% FeCl3
[27] = Test 4: 99% Spent 15% HCl + 0.50% FeCl3
[28] = Test 5: 99.5% Spent 15% HCl + 0.50% FeCl3
[29] = Core 2 (highest permeability core)
[30] = Test 1: DI water + 0.50% FeCl3 (pH 2.03), reagent concentration 1.50%
[31] = Test 1: DI water + 0.50% FeCl3 (pH 2.03), reagent concentration 2.00%
[32] = Test 2: 15% HCl + 0.50% of a 40% FeCl3 Aqueous Solution, reagent concentration 1.50%
[33] = Test 2: 15% HCl + 0.50% of a 40% FeCl3 Aqueous Solution, reagent concentration 2.00%
[34] = Test 3: 50% water/CaCl2 + 10% 15% HCl + 0.50% FeCl3, reagent concentration 1.50%
[35] = Test 3: 50% water/CaCl2 + 10% 15% HCl + 0.50% FeCl3, reagent concentration 2.00%

NNC(=O)NN [Carbohydrazide]
hazard rating [1]: harmful and an irritant | Iron % reduced [2, 15]: 27.3% | Iron Content Fe+2 [2, 15]: 390 mg/L | Iron % reduced [2, 16]: 38.5% | Iron Content Fe+2 [2, 16]: 550 mg/L | Iron % reduced [2, 17]: 46.9% | Iron Content Fe+2 [2, 17]: 670 mg/L | Iron % reduced [2, 18]: 0.8% | Iron Content Fe+2 [2, 18]: 10 mg/L | Iron % reduced [2, 19]: 12.2% | Iron Content Fe+2 [2, 19]: 160 mg/L | Iron % reduced [2, 20]: 29.8% | Iron Content Fe+2 [2, 20]: 390 mg/L | Iron % reduced [2, 21]: 0.8% | Iron Content Fe+2 [2, 21]: 10 mg/L | Iron % reduced [2, 22]: 13% | Iron Content Fe+2 [2, 22]: 160 mg/L | Iron % reduced [2, 23]: 15% | Iron Content Fe+2 [2, 23]: 190 mg/L | Iron % reduced [2, 24]: 15% | Iron Content Fe+2 [2, 24]: 190 mg/L | EC50 ([3]; Skeletonema costatum, 72 h; read-out: Skeletonema Costatum EC50 72 hr): 56.7 µg/mL (≈ 0.629 mM) | Iron % reduced ([4]; Test 1: 15% HCl + 0.50% FeCl3): 1.8% | Iron Content Fe+2 ([4]; Test 1: 15% HCl + 0.50% FeCl3): 20 mg/L | Iron % reduced [4, 25]: 8.0% | Iron Content Fe+2 [4, 25]: 90 mg/L | Iron % reduced [4, 26]: 1.6% | Iron Content Fe+2 [4, 26]: 20 mg/L | Iron % reduced [4, 27]: 20.0% | Iron Content Fe+2 [4, 27]: 160 mg/L | Iron % reduced [4, 28]: 12.3% | Iron Content Fe+2 [4, 28]: 90 mg/L

NN [Hydrazine]
hazard rating [1]: toxic to aquatic species

CCC(C)=NO [2-Butanone oxime]
LC50 at 48 h [5]: 6930 µg/mL (≈ 79.6 mM) | NOEC (No Observable Effect Concentration) Acartia tonsa ([6]; 48 hours): 8.9 mg/L | chromatographic logP ([7]; octanol/water): 1.38 | NOEC (No Observable Effect Concentration) Skeletonema Costatum ([3]; 72 hours): 99.7 mg/L | EC50 ([3]; Skeletonema costatum, 72 h, read-out: Skeletonema Costatum EC50 72 hr): 470 µg/mL (≈ 5.39 mM) | EC50 ([8]; 96 h, read-out: Scophthalamus maximus juvenile EC 50 96 hr): > 3000 µg/mL | NOEC (No Observable Effect Concentration) Scophthalamus maximus juvenile ([8]; 96 hours): 1000 mg/L | Final Permeability ([9]; Core 1): 34.1 md | Final Permeability [9, 29]: >5000 md | Final Permeability ([9]; Core 3): 49.6 md

CCN(O)CC [Diethylhydroxylamine, Diethylhydroxyl amine]
bioaccumulation (Log Pow), literature value [10]: 0.43 | hazard rating [1]: harmful and an irritant | biodegradation [11]: less than 60% | Iron % reduced [2, 15]: 65.7% | Iron Content Fe+2 [2, 15]: 670 mg/L | Iron % reduced [2, 16]: 73.5% | Iron Content Fe+2 [2, 16]: 750 mg/L | Iron % reduced [2, 17]: 75.5% | Iron Content Fe+2 [2, 17]: 770 mg/L | Iron % reduced [2, 30]: 84.3% | Iron Content Fe+2 [2, 30]: 860 mg/L | Iron % reduced [2, 31]: 89.2% | Iron Content Fe+2 [2, 31]: 910 mg/L | Iron % reduced [2, 18]: 34.3% | Iron Content Fe+2 [2, 18]: 350 mg/L | Iron % reduced [2, 19]: 48.0% | Iron Content Fe+2 [2, 19]: 490 mg/L | Iron % reduced [2, 32]: 52.9% | Iron Content Fe+2 [2, 32]: 540 mg/L | Iron % reduced [2, 33]: 83.3% | Iron Content Fe+2 [2, 33]: 850 mg/L | Iron % reduced [2, 22]: 25% | Iron Content Fe+2 [2, 22]: 310 mg/L | Iron % reduced [2, 23]: 42% | Iron Content Fe+2 [2, 23]: 520 mg/L | Iron % reduced [2, 34]: 47% | Iron Content Fe+2 [2, 34]: 590 mg/L | Iron % reduced [2, 35]: 61% | Iron Content Fe+2 [2, 35]: 760 mg/L | Iron % reduced ([4]; Test 1: 15% HCl + 0.50% FeCl3): 54.4% | Iron Content Fe+2 ([4]; Test 1: 15% HCl + 0.50% FeCl3): 620 mg/L | Iron % reduced [4, 25]: 66.4% | Iron Content Fe+2 [4, 25]: 750 mg/L | Iron % reduced [4, 26]: 74.4% | Iron Content Fe+2 [4, 26]: 930 mg/L | Iron % reduced [4, 27]: 88.8% | Iron Content Fe+2 [4, 27]: 710 mg/L | Iron % reduced [4, 28]: 89.0% | Iron Content Fe+2 [4, 28]: 650 mg/L

Cl.NN [Hydrazinium hydrochloride]
Acartia tonsa LC 50 48 hr ([6]; 48 hr): 0.37 µg/mL | hazard rating [1]: toxic by all routes | Residue Remaining [12]: 0.278 g | Bioaccumulation Log Pow [7]: <0 | Biodegradability BOD28 day [13]: 84% | Skeletonema Costatum EC50 24 hr ([3]; 24 hr): 0.38 µg/mL | Abra alba toxicity [14]: 96 mg/L | Final Permeability ([9]; Core 1): 14.1 md | Final Permeability [9, 29]: >5000 md | Final Permeability ([9]; Core 3): 6.8 md
